Measured values as given in patent US20090155209A1, “NOVEL MACROCYCLIC INHIBITORS OF HEPATITIS C VIRUS REPLICATION” (priority 2007, published 2009).

Tested on: not listed separately
Experiment: Single ascending dose study, fasted and fed: safety and non-compartmental plasma PK
Type: in vivo, healthy volunteers (human)
Conditions: all doses, single dose, healthy volunteers
Experimental: A single ascending dose (SAD) study of the compound 100 was conducted in healthy volunteers. The compound 100 was administered as monotherapy both with and without food. The safety and pharmacokinetic profile of the single dose of the compound 100 was assessed.
Interim, blinded data were used for Pharmacokinetic (PK) study relating to food effects. With the exception of the 400 mg cohort, eight subjects were studied at each dose (single doses of 100, 200, or 800 mg of the sodium salt of the compound 100, which may be referred to herein as ITMN-191, administered in the fasting state). In the 400 mg cohort, ten subjects received single 400 mg doses of ITMN-191 under both fasted and fed conditions with a 5-day washout period between dosing. In the 100 mg cohort, subjects were sampled within 1 hour before dosing and at 0.5, 1, 1.5, 2, 2.5, 3, 4, 6, 8, 12, 18, 24, 32 and 48 hours after dosing. For subsequent cohorts, subjects were sampled within 1 hour before dosing and at 0.25, 0.5, 1, 1.5, 2, 2.5, 3, 4, 6, 8, 12, 18, 24, and 32 hours after dosing. Nominal (not actual) sampling times were used for the analysis. PK samples were analyzed using liquid chromatography-tandem mass spectrometry (LC/MS/MS with API 4000 mass spectrometer) following solid-phase extraction. The upper and lower limits of quantitation (ULOQ and LLOQ) are 100 and 0.01 ng/mL, respectively.
Pharmacokinetic parameter estimates were calculated using non-compartmental methods (implemented using Microsoft Excel®). Half-lives were determined by visual inspection of the log concentration-time plots to choose the terminal phase (minimum of three detectable observations). Using linear regression of the chosen terminal phase observations, elimination rate constants were calculated as the negative slope of the regression line and half-life as the natural log of 2 divided by the elimination rate constant.
Ten subjects received single 1600 mg doses of ITMN-191 under both fasted and fed conditions with a 5-day washout period between dosing. For each condition, subjects were sampled within 1 hour before dosing and at 0.25, 0.5, 1, 1.5, 2, 2.5, 3, 4, 6, 8, 12, 18, 24, and 32 hours after dosing. Pharmacokinetic parameter estimates were calculated using non-compartmental methods. Half-life (t1/2) was determined by visual inspection of the log concentration-time plots to choose the terminal phase (minimum of three detectable observations). Using linear regression of the chosen terminal phase observations, elimination rate constants were calculated as the negative slope and half-life as the natural log of 2 divided by the elimination rate constant.

SMILES	tolerability
CC(C)(C)OC(=O)N[C@H]1CCCCC/C=C\[C@@H]2C[C@@]2(C(=O)NS(=O)(=O)C2CC2)NC(=O)[C@@H]2C[C@@H](OC(=O)N3Cc4cccc(F)c4C3)CN2C1=O [compound 100]	well tolerated

Same assay, conditions: single dose, healthy volunteers

SMILES	exposure when administered with food, compared to without food
CC(C)(C)OC(=O)N[C@H]1CCCCC/C=C\[C@@H]2C[C@@]2(C(=O)NS(=O)(=O)C2CC2)NC(=O)[C@@H]2C[C@@H](OC(=O)N3Cc4cccc(F)c4C3)CN2C1=O [compound 100]	higher than anticipated exposure

Target: T1, NS3-NS4 (Hepatitis C virus genotype 1a, UniProt P27958)
Experiment: NS3-NS4 activity, IC50 (Example 37, Table 8)
Type: biochemical
Conditions: not given

T1 sequence (P27958 1027-1657): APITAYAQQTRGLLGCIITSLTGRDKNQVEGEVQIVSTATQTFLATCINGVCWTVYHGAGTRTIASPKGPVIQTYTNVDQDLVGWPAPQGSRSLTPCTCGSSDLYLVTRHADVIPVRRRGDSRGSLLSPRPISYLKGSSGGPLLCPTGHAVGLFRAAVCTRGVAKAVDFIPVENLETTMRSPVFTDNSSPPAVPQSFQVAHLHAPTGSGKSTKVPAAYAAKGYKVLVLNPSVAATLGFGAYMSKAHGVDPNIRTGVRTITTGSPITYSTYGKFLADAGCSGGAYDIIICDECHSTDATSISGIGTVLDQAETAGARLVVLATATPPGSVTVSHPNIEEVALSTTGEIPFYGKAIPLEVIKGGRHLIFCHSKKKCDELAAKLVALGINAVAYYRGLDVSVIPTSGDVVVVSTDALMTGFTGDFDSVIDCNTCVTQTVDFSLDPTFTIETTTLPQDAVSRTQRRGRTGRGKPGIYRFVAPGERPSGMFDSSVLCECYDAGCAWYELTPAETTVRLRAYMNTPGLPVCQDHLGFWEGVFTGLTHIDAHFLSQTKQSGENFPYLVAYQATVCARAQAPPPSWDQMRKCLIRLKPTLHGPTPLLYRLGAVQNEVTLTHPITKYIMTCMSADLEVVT
T1 sequence (P27958 1658-1711): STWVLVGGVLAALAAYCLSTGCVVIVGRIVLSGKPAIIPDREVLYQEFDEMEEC

SMILES	IC50
CC(C)(C)OC(=O)N[C@H]1CCCCC/C=C\[C@@H]2C[C@@]2(C(=O)NS(=O)(=O)Cc2cccc(C(F)(F)F)c2)NC(=O)[C@@H]2C[C@@H](OC(=O)N3Cc4cccc(F)c4C3)CN2C1=O [Compound 518]	< 100 nM
CC(C)(C)CONC(=O)[C@@]12C[C@H]1/C=C\CCCCC[C@H](NC(=O)OC(C)(C)C)C(=O)N1C[C@H](OC(=O)N3Cc4cccc(F)c4C3)C[C@H]1C(=O)N2 [Compound 720]	< 100 nM
CC(C)(C)OC(=O)N[C@H]1CCCCCCC[C@@H]2C[C@@]2(C(=O)NOc2cccc(F)c2)NC(=O)[C@@H]2C[C@@H](OC(=O)N3Cc4cccc(F)c4C3)CN2C1=O [Compound 810]	< 100 nM
CCc1ccc(S(=O)(=O)NC(=O)[C@@]23C[C@H]2/C=C\CCCCC[C@H](NC(=O)OC(C)(C)C)C(=O)N2C[C@H](OC(=O)N4Cc5cccc(F)c5C4)C[C@H]2C(=O)N3)cc1 [Compound 320]	< 100 nM
CC(C)(C)OC(=O)N[C@H]1CCCCC/C=C\[C@@H]2C[C@@]2(C(=O)NS(=O)(=O)c2cccnc2Cl)NC(=O)[C@@H]2C[C@@H](OC(=O)N3Cc4cccc(F)c4C3)CN2C1=O [Compound 529]	< 100 nM
CCC(C)(C)OC(=O)N[C@H]1CCCCC/C=C\[C@@H]2C[C@@]2(C(=O)NS(=O)(=O)c2ccc(Cl)cc2)NC(=O)[C@@H]2C[C@@H](OC(=O)N3Cc4cccc(F)c4C3)CN2C1=O [Compound 336]	< 100 nM
O=C1N[C@]2(C(=O)NS(=O)(=O)C3CC3)C[C@H]2/C=C\CCCCC[C@H](Nc2nc(-c3ccccc3Cl)cs2)C(=O)N2C[C@H](OC(=O)N3Cc4cccc(F)c4C3)C[C@@H]12 [Compound 209]	< 100 nM
O=C1N[C@]2(C(=O)NS(=O)(=O)C3CC3)C[C@H]2/C=C\CCCCC[C@H](Nc2nc3c(s2)CCC3)C(=O)N2C[C@H](OC(=O)N3Cc4cccc(F)c4C3)C[C@@H]12 [Compound 206]	< 100 nM
CCC(C)(C)OC(=O)N[C@H]1CCCCC/C=C\[C@@H]2C[C@@]2(C(=O)NS(=O)(=O)c2ccccc2C)NC(=O)[C@@H]2C[C@@H](OC(=O)N3Cc4cccc(F)c4C3)CN2C1=O [Compound 337]	< 100 nM
O=C1N[C@]2(C(=O)NS(=O)(=O)C3CC3)C[C@H]2/C=C\CCCCC[C@H](NC(=O)N2CC(F)(F)C2)C(=O)N2C[C@H](OC(=O)N3Cc4cccc(F)c4C3)C[C@@H]12 [Compound 418]	< 100 nM

Target: T1, NS3-NS4
Experiment: cell-based
Conditions: EC50, NS3-NS4 activity

SMILES	EC50
CC(C)(C)OC(=O)N[C@H]1CCCCC/C=C\[C@@H]2C[C@@]2(C(=O)NS(=O)(=O)Cc2cccc(C(F)(F)F)c2)NC(=O)[C@@H]2C[C@@H](OC(=O)N3Cc4cccc(F)c4C3)CN2C1=O [Compound 518]	100 to 1000 nM
CC(C)(C)CONC(=O)[C@@]12C[C@H]1/C=C\CCCCC[C@H](NC(=O)OC(C)(C)C)C(=O)N1C[C@H](OC(=O)N3Cc4cccc(F)c4C3)C[C@H]1C(=O)N2 [Compound 720]	< 100 nM
CC(C)(C)OC(=O)N[C@H]1CCCCCCC[C@@H]2C[C@@]2(C(=O)NOc2cccc(F)c2)NC(=O)[C@@H]2C[C@@H](OC(=O)N3Cc4cccc(F)c4C3)CN2C1=O [Compound 810]	1000 to 10000 nM
CCc1ccc(S(=O)(=O)NC(=O)[C@@]23C[C@H]2/C=C\CCCCC[C@H](NC(=O)OC(C)(C)C)C(=O)N2C[C@H](OC(=O)N4Cc5cccc(F)c5C4)C[C@H]2C(=O)N3)cc1 [Compound 320]	< 100 nM
CC(C)(C)OC(=O)N[C@H]1CCCCC/C=C\[C@@H]2C[C@@]2(C(=O)NS(=O)(=O)c2cccnc2Cl)NC(=O)[C@@H]2C[C@@H](OC(=O)N3Cc4cccc(F)c4C3)CN2C1=O [Compound 529]	< 100 nM
CCC(C)(C)OC(=O)N[C@H]1CCCCC/C=C\[C@@H]2C[C@@]2(C(=O)NS(=O)(=O)c2ccc(Cl)cc2)NC(=O)[C@@H]2C[C@@H](OC(=O)N3Cc4cccc(F)c4C3)CN2C1=O [Compound 336]	< 100 nM
O=C1N[C@]2(C(=O)NS(=O)(=O)C3CC3)C[C@H]2/C=C\CCCCC[C@H](Nc2nc(-c3ccccc3Cl)cs2)C(=O)N2C[C@H](OC(=O)N3Cc4cccc(F)c4C3)C[C@@H]12 [Compound 209]	< 100 nM
O=C1N[C@]2(C(=O)NS(=O)(=O)C3CC3)C[C@H]2/C=C\CCCCC[C@H](Nc2nc3c(s2)CCC3)C(=O)N2C[C@H](OC(=O)N3Cc4cccc(F)c4C3)C[C@@H]12 [Compound 206]	100 to 1000 nM
CCC(C)(C)OC(=O)N[C@H]1CCCCC/C=C\[C@@H]2C[C@@]2(C(=O)NS(=O)(=O)c2ccccc2C)NC(=O)[C@@H]2C[C@@H](OC(=O)N3Cc4cccc(F)c4C3)CN2C1=O [Compound 337]	< 100 nM
O=C1N[C@]2(C(=O)NS(=O)(=O)C3CC3)C[C@H]2/C=C\CCCCC[C@H](NC(=O)N2CC(F)(F)C2)C(=O)N2C[C@H](OC(=O)N3Cc4cccc(F)c4C3)C[C@@H]12 [Compound 418]	< 100 nM
